This is an account of results in publication PMC5448077, “Development of an orally available inhibitor of CLK1 for skipping a mutated dystrophin exon in Duchenne muscular dystrophy” (Scientific Reports, 2017).

One experiment has as its target ROCK2 (Homo sapiens, UniProt O75116). Put plainly: biochemical. In a few lines: (§1)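 Human kinases phosphorylating kinase-specific synthetic peptides, assayed by mobility shift (MSA) or IMAP fluorescence polarization, in 20 mM HEPES pH 7.5, 0.01% Triton X-100, 2 mM DTT with substrate/ATP-metal. Reactions ran 1 or 5 h at room temperature; activity = P/(P + S) from product and substrate peak heights.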

The target in the next experiment is LATS2 (Homo sapiens, UniProt Q9NRM7). In words: biochemical. The essentials: as §1
Chain of LATS2 (Q9NRM7 whole entry): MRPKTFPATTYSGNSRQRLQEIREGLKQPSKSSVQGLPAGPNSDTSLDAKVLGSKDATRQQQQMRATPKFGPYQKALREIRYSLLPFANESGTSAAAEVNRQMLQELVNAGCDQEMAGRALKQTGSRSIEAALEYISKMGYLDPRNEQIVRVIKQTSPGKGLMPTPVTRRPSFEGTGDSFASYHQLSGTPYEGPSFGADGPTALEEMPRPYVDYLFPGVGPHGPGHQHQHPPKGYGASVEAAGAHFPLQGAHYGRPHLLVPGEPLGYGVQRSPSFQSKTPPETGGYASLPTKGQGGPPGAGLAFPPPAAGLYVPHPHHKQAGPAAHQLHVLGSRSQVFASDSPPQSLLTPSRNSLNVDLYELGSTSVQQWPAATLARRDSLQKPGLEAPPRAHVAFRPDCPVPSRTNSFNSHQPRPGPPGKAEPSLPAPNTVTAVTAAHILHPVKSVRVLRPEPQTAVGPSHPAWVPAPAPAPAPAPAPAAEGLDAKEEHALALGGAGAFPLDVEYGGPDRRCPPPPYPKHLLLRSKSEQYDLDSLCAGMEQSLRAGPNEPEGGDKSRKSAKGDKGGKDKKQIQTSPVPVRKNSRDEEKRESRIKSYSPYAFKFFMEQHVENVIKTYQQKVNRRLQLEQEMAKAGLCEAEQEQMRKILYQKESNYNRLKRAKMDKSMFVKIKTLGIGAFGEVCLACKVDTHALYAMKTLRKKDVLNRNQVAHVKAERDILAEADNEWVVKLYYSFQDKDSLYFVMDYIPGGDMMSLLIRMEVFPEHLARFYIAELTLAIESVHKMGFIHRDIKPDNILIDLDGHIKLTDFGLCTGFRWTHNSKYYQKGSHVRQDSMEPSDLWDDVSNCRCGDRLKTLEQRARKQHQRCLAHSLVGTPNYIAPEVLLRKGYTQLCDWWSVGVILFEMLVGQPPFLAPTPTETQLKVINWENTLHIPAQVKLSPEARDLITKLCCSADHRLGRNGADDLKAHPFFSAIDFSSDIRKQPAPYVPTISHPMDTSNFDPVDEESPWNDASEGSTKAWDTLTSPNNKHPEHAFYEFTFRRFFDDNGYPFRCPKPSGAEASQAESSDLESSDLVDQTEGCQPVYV
A further experiment deals with FER (Homo sapiens, UniProt P16591). In words: biochemical. In a few lines:
as §1

The target in another experiment is SRC (Homo sapiens, UniProt P12931). In words: biochemical. The essentials:
as §1

The next experiment deals with JAK1 (Homo sapiens, UniProt P23458). Put plainly: biochemical. In a few lines: as §1
Chain of JAK1 (P23458 whole entry): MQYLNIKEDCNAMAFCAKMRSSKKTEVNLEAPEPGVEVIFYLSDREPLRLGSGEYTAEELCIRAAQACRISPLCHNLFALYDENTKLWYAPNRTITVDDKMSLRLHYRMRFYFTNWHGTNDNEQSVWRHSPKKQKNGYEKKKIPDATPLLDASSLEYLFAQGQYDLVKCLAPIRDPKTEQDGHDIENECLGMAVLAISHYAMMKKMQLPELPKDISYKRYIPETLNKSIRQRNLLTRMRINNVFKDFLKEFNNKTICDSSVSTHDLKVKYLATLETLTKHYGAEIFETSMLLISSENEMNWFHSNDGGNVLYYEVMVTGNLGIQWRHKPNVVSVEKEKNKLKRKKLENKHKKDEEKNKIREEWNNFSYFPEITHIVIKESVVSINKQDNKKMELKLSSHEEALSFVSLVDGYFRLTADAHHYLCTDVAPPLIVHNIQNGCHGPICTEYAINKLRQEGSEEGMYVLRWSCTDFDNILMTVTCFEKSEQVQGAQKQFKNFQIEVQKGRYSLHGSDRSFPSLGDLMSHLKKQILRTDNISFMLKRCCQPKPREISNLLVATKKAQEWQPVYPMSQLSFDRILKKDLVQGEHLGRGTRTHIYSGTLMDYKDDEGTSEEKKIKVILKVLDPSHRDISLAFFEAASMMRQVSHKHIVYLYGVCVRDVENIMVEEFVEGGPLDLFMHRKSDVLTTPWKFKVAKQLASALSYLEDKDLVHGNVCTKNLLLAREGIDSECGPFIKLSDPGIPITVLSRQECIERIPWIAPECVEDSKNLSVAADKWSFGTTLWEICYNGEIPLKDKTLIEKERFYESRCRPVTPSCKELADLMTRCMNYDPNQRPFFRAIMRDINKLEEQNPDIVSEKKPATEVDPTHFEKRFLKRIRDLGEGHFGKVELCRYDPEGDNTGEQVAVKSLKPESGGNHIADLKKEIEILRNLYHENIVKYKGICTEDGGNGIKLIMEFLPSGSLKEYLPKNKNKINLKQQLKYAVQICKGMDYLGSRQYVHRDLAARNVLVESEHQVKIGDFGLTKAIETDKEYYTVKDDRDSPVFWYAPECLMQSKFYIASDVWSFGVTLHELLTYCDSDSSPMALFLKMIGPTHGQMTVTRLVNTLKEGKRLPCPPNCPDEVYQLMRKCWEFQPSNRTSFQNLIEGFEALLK
The target in another experiment is NEK6 (Homo sapiens, UniProt Q9HC98). In words: biochemical. The essentials:
as §1

Another experiment deals with T1, CDK5/p25 (Homo sapiens, UniProt Q00535).
T1 construct: p25
In words: biochemical. The essentials:
as §1

Another experiment has as its target T2, PDGFRβ (Homo sapiens, UniProt P09619).
T2 construct: gene PDGFRB
In words: biochemical. The essentials:
as §1

In experiment [1] the target is T3, CDC2-like kinase 1 (CLK1) (Homo sapiens, UniProt P49759). Further details: recombinant GST-tagged human CLK1. As to conditions: 1 µM; inhibitor.
T3 sequence (P49759 whole entry): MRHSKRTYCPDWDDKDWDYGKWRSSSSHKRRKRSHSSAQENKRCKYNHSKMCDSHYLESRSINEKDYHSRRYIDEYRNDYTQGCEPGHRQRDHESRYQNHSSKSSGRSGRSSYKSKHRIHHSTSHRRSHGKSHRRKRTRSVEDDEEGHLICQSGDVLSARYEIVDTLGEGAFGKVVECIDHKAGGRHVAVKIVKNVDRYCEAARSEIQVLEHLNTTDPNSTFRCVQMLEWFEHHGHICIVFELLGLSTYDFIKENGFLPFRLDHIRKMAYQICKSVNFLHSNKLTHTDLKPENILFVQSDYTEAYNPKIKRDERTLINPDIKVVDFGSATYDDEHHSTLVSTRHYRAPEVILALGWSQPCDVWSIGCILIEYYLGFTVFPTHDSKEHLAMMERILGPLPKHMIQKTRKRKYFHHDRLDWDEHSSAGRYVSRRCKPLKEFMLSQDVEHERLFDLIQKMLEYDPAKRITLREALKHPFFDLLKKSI
Description: These assays rely on the phosphorylation of small synthetic peptides developed for each kinase, and detect activity by changes in electrophoretic mobility (MSA assay) or by binding of a fluorescently labelled peptide to a large micro-particle and concomitant polarization increases (IMAP assay). […] Inhibitor (4×), substrate/ATP-Metal (4×), and kinase (2×) solutions were prepared with assay buffer (20 mM HEPES, 0.01% Triton X-100, 2 mM DTT, pH 7.5) and mixed in 384-well plates at room temperature for 1 or 5 h depending on the kinase. Reactions were stopped by the addition of termination buffer (QuickScout Screening Assist MSA; Carna Biosciences). The entire reaction mixture was then applied to a LabChip system (Perkin-Elmer, Waltham, MA, USA) and the product and substrate peptide peaks were separated and quantified, and then heights of product (P) and substrate (S) peptide peaks were calculated. The level of kinase activity was evaluated with the following equation: activity = P/(P + S).
Experiment [2] deals with T3, CDC2-like kinase 1 (CLK1). In words: biochemical.

Chain of ROCK2 (O75116 whole entry): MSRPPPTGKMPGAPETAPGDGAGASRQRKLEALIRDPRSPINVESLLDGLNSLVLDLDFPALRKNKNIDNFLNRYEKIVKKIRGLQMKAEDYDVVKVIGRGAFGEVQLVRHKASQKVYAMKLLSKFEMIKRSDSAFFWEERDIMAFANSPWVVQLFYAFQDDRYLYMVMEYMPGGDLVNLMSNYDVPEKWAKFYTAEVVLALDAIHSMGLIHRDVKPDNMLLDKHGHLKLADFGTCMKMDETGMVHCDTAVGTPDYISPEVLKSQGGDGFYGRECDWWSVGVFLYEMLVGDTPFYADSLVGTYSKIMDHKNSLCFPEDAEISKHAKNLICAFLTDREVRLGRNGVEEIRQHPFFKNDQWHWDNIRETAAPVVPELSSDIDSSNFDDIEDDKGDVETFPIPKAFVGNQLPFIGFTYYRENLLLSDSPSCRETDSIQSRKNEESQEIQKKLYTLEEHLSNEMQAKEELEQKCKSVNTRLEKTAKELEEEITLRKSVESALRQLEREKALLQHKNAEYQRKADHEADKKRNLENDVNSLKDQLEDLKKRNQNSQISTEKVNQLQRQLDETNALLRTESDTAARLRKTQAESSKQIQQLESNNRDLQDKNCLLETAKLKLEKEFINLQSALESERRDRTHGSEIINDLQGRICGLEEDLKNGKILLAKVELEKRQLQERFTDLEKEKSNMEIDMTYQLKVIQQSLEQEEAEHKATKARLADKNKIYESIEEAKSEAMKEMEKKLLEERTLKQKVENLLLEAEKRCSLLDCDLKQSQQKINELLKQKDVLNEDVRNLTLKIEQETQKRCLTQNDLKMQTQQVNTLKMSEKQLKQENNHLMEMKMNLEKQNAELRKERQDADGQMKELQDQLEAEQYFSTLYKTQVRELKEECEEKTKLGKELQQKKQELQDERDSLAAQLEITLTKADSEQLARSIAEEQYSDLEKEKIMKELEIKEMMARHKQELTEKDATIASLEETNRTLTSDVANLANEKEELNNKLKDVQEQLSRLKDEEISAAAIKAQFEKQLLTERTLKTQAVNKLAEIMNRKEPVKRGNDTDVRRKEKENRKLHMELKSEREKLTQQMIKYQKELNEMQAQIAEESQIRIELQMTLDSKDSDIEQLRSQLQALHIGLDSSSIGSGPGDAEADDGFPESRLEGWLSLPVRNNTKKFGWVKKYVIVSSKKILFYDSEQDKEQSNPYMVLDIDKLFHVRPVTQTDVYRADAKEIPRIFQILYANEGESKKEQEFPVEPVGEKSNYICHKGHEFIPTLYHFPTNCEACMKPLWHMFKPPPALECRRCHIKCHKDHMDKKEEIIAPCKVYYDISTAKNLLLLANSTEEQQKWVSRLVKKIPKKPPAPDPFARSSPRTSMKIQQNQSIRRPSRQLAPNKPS
Chain of SRC (P12931 whole entry): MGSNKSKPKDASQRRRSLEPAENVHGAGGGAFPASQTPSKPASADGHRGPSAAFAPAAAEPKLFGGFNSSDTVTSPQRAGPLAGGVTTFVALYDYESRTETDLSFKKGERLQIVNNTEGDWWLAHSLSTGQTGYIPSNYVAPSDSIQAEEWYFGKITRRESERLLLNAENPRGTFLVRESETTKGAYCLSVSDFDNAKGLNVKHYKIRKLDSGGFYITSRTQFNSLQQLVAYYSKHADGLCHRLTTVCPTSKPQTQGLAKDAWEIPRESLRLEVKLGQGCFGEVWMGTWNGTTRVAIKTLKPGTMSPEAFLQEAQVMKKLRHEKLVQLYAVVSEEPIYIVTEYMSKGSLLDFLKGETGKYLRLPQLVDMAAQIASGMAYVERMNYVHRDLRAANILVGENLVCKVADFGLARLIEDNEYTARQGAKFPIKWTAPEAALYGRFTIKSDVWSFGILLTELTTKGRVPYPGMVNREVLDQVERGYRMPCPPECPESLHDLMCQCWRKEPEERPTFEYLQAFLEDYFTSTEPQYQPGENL
Chain of NEK6 (Q9HC98 whole entry): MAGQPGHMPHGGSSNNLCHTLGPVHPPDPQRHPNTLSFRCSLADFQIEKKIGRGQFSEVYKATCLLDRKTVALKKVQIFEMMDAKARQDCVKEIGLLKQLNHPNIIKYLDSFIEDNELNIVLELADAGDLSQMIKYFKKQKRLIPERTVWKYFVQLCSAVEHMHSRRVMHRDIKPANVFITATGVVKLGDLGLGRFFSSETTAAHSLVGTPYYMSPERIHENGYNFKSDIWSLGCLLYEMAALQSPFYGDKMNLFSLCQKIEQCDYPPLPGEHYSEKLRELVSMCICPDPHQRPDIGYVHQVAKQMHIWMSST

Usually inhibition stands for the change of the read-out against control, counted positive when it falls. One may read the %Inhibition as the change of the read-out against control, counted positive when it falls. Usually Ki stands for the dissociation constant of the complex between target and ligand, obtained from inhibition or displacement. Higher therefore signals weaker binding. Consider `c1cc(-c2ccc3[nH]ncc3c2)ccn1` [TG693, 5-(4-pyridinyl)-1H-indazole], for which the inhibition at 1 µM against ROCK2 is 46.3%; at LATS2, -3.8%; on FER, 4.4%; against SRC, 3.2%; against JAK1, -0.7%; at NEK6 it was -2.5%. Also, the inhibition at 1 µM on CDK5/p25 was found to be 21.8%; on PDGFRβ it was 3%. Further, the “%Inhibition” value in experiment [1] turned out to be 92.6%. The molecule also came in with an inhibitory constant (Ki) in experiment [2] of 105 nM.
